# Reference: US8008285B2, “Droxidopa and pharmaceutical composition thereof for the treatment of fibromyalgia” (Chelsea Therapeutics, Inc., priority 2007, dated 2011)
# Values joined by “and” are separate entries in the source; they are usually repeats but may differ in a detail not shown here. Equal values may be shown once.
# How the values were obtained:
# [1] = tested on: Chronic Constriction Injury (CCI) model; assay: Chronic Constriction Injury (CCI) model, mechanical allodynia (electronic Von Frey); format: in vivo, rat; settings: 60 minutes post dosing; for levels of allodynia compared with vehicle treated animals: ANOVA followed by t-test, significant at P<0.05; for levels of allodynia compared with vehicle treated animals / (3) Post-Treatment (tactile pressure threshold), Ave. / (3) − (2), Ave. / Inhibition (%) of allodynia, Ave. / (3) Post-Treatment (tactile pressure threshold) / (3) − (2) (Post-Treatment minus Pre-Treatment) / Inhibition (%) of allodynia: IP; for (3) Post-Treatment (tactile pressure threshold), Ave. / (3) − (2), Ave. / Inhibition (%) of allodynia, Ave.: group average of 10 animals; for (3) Post-Treatment (tactile pressure threshold), Ave. / (3) − (2), Ave. / Inhibition (%) of allodynia, Ave. / (3) Post-Treatment (tactile pressure threshold) / (3) − (2) (Post-Treatment minus Pre-Treatment) / Inhibition (%) of allodynia: 400 mg/kg droxidopa and 20 mg/kg carbidopa, or 18 mg/kg fluoxetine; for (3) Post-Treatment (tactile pressure threshold) / (3) − (2) (Post-Treatment minus Pre-Treatment) / Inhibition (%) of allodynia: individual animals, male Wistar rats
# Experimental: Treatment of fibromyalgia through reducing sensitivity to chronic pain using droxidopa in combination with carbidopa was investigated using the Chronic Constriction Injury (CCI) model. […] Specifically, after anesthetization using pentobarbital (50 mg/kg, 5 ml/kg, i.p.), the sciatic nerve was exposed at mid-thigh level, and three ligatures (4-0 silk suture), about 1 mm apart, were loosely tied around the nerve. The animals were then housed individually in cages with soft bedding for seven days before testing for mechanical allodynia. […] The tip was gradually applied with sufficient force to cause slight buckling of the filament against the paw. […] Allodynia was calculated according to the following formula: % Inhibition=ΔTreatment/ΔBlank×100%. where Δ Treatment is the change in tactile pressure threshold over pre-treatment after ligation [(Post-Treatment)-(Pre-Treatment)], and Δ Blank is change in tactile pressure threshold over pre-ligation but before treatment [(Pre-Ligation)-(Pre-Treatment)]. A one-way ANOVA followed by t-test was applied for comparison between test substance treated groups and the vehicle control group. Activity was considered significant at P<0.05.
# plasma norepinephrine = assay: Plasma norepinephrine concentration after dosing droxidopa combinations; format: in vivo, rat; settings: 2 hours post-dosing, rats
# Experimental: The pharmacokinetic properties of droxidopa combinations useful in the methods of the invention were evaluated in male Sprague Dawley rats.
# Administration of droxidopa combinations was seen to affect plasma norepinephrine concentration in comparison to administration of droxidopa alone. Formulation 0 indicates administration of the vehicle alone without droxidopa or a droxidopa combination of the invention and provides a baseline comparative of plasma norepinephrine levels in an untreated subject.
# MAO-A = molecular target: T1, MAO-A (Homo sapiens, UniProt P21397); settings: cited from earlier work
# T1 sequence (P21397 1-527): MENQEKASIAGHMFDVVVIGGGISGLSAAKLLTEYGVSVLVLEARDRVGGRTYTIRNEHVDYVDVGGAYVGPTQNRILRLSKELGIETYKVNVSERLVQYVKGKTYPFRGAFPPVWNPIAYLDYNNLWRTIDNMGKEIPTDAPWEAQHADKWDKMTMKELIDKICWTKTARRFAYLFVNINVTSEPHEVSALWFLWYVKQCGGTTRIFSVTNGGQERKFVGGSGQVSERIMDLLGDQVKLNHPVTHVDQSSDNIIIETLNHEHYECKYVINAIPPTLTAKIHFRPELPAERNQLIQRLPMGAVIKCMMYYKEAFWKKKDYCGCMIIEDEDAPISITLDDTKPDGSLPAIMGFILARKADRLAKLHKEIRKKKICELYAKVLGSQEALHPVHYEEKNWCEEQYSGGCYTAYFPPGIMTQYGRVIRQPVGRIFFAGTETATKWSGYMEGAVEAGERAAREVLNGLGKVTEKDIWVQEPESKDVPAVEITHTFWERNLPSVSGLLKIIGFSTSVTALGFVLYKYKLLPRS
SMILES,levels of allodynia compared with vehicle treated animals [1],"(3) Post-Treatment (tactile pressure threshold), Ave. [1]","(3) − (2), Ave. [1]","Inhibition (%) of allodynia, Ave. [1] [%]",(3) Post-Treatment (tactile pressure threshold) [1],(3) − (2) (Post-Treatment minus Pre-Treatment) [1],Inhibition (%) of allodynia [1],increase in plasma norepinephrine concentration (fold over vehicle alone) (plasma norepinephrine) [fold],"Inhibition (%) of allodynia, Ave. ([1]; listed as fluoxetine)",Inhibition (%) of allodynia ([1]; listed as fluoxetine) [%],"increases in allodynia ([1]; individual fluoxetine-treated subjects, 18 mg/kg IP) [%]",selectivity for MAO-A than MAO-B (MAO-A)
"NC(C(=O)O)C(O)c1ccc(O)c(O)c1 (stereo not drawn) [Droxidopa, threo-3-(3,4-dihydroxyphenyl)serine]",significantly decreased levels of allodynia,21.7,13.2,65.7,26.3 and 32.1 and 23.4 and 26.2 and 22.9 and 11.4 and 20.1 and 12.6 and 22.3 and 19.7,16.2 and 24.4 and 16.7 and 14.4 and 16.3 and 2.8 and 13.8 and 6 and 10.9 (2×),total allodynia inhibition in several test subjects and 104.5% and 115.6% and 66.3% and 75.8% and 74.4% and 11.5% and 72.6% and 26.1% and 62.3% and 48.0%,~5,,,,
"CNCCC(Oc1ccc(C(F)(F)F)cc1)c1ccccc1 (stereo not shown) [Fluoxetine, fluoxetine]",not significantly different from vehicle-treated rats,9.2,0.4,0.7,14.4 and 12.4 and 11.2 and 9.7 and 7 and 10.4 and 6.5 and 8.8 and 6 and 5.9,5.3 and 1.2 and 3 (2×) and 0.6 (2×) and 1.6 and −5.5 and −2.7 and −3.6,25.0% and 5.9% and 17.3% and 3.8% (2×) and 6.1% and 12.2% and −40.1% and −12.1% and −14.6%,,less than 1%,25,≤ 40.1,
O=C(NCCN1CCOCC1)c1ccc(Cl)cc1 [moclobemide],,,,,,,,,,,,approximately three
